Experiments:
HDAC6 human recombinant = molecular target: T1, HDAC6 human recombinant (Homo sapiens, UniProt Q9UBN7); experiment: HDAC enzyme activity inhibition (in vitro), HDAC6 assay; type: biochemical; conditions: samples at 0.1, 1, 10, 100 and 1000 nM; 37° C. 60 minutes; fluorescence Ex 390, Em 460; read-out: HDAC6 IC50
T1 construct: purchased Calbiochem 382180
T1 sequence (Q9UBN7 1-1215): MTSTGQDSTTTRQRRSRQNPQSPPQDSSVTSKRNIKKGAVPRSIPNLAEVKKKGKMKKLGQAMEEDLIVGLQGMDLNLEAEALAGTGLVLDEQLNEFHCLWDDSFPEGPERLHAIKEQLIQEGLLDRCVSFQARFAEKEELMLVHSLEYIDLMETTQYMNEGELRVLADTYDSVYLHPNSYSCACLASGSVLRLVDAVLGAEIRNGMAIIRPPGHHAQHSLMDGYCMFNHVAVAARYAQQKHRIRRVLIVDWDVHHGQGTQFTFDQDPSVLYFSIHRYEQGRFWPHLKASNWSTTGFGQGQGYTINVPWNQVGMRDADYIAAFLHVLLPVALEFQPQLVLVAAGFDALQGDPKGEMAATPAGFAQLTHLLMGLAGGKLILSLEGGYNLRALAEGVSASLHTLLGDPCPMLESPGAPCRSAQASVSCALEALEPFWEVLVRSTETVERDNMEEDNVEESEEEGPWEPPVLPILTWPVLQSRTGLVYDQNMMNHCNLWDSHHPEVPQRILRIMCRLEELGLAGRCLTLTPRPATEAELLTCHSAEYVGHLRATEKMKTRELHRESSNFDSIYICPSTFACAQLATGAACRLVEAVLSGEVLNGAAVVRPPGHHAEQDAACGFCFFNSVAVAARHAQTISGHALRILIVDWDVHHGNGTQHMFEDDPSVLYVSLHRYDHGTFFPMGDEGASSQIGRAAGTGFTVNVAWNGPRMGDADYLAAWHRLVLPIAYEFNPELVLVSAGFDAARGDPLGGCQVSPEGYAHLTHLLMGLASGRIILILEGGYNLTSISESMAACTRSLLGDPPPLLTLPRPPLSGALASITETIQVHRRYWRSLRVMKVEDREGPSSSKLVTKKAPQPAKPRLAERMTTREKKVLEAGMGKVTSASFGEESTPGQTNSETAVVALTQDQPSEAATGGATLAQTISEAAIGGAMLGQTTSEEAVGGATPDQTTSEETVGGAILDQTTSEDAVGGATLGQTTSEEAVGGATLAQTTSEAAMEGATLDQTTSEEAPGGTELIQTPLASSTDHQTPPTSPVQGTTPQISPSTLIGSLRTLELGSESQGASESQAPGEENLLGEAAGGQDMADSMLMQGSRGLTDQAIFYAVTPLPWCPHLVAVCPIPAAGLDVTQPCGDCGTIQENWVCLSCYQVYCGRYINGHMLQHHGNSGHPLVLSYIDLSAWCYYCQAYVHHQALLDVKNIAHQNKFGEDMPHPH
Procedure, shortened: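 Fluorescence (Ex 390, Em 460) read after a 37° C, 60 min enzyme reaction and a further 30 min developer step at 37° C. Uses recombinant human HDAC6; HDAC1 arm dosed at 100, 1000, 10000 nM.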

HDAC1 = molecular target: T2, HDAC1 (Homo sapiens, UniProt Q13547); experiment: HDAC enzyme activity inhibition (in vitro), HDAC1 Fluorimetric Drug Discovery Assay Kit; type: biochemical; conditions: samples at 100, 1000 and 10000 nM; 37° C. 60 minutes; fluorescence Ex 390, Em 460; read-out: HDAC1 IC50
T2 construct: purchased Enzolifesciences BML-AK511
T2 sequence (Q13547 whole entry): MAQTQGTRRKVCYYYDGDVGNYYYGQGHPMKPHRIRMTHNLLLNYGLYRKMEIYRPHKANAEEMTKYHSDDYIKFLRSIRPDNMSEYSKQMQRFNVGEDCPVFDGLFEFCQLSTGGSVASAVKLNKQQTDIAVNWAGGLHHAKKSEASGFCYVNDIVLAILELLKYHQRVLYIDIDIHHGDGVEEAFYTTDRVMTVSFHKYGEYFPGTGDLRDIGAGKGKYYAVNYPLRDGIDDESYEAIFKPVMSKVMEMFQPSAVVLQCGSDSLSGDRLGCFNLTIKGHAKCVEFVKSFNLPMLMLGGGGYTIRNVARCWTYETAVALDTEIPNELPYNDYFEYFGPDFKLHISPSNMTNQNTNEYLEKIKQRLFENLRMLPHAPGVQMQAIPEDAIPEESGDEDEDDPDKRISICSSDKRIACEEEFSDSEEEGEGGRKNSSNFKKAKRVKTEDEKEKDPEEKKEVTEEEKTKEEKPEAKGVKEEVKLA
Procedure, shortened: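 Fluorimetric read-out (Ex 390, Em 460) after a 60 min 37° C enzyme reaction and 30 min 37° C developer step. Tested levels: 0.1-1000 nM (0.1, 1, 10, 100, 1000) on recombinant human HDAC6; 100, 1000 and 10000 nM on HDAC1 kit enzyme.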

Row | SMILES | IC50 (HDAC6 human recombinant) [nM] | IC50 (HDAC1) [nM]
1 | O=c1n(Cc2ccc(-c3nnc(C(F)F)o3)cn2)c2cc(F)c(-c3cccnc3)cc2n1C1CCN(CC(F)(F)C(F)F)CC1 [Compound 242, 1-((5-(5-(difluoromethyl)-1,3,4-oxadiazole-2-yl)pyridine-2-yl)methyl)-6-fluoro-5-(pyridine-3-yl)-3-(1-(2,2,3,3-tetrafluoropropyl)piperidine-4-yl)-1,3-dihydro-2H-benzo[d]imidazole-2-one] | 46 | > 10000
2 | Cn1c(=O)n(Cc2ccc(-c3nnc(C(F)F)o3)cn2)c2cc(F)c(-c3cccc4[nH]ccc34)cc21 [Compound 224, 1-((5-(5-(difluoromethyl)-1,3,4-oxadiazole-2-yl)pyridine-2-yl)methyl)-6-fluoro-5-(1H-indole-4-yl)-3-methyl-1,3-dihydro-2H-benzo[d]imidazole-2-one] | 8 | > 10000
3 | O=c1oc2cc(N3CCN(C4COC4)CC3)c(F)cc2n1Cc1ccc(-c2nnc(C(F)F)o2)cn1 [Compound 318, 3-((5-(5-(difluoromethyl)-1,3,4-oxadiazole-2-yl)pyridine-2-yl)methyl)-5-fluoro-6-(4-(oxetan-3-yl)piperazine-1-yl)benzo[d]oxazole-2(3H)-one] | 56 | > 10000
4 | CN1CCC(n2c(=O)n(Cc3ccc(-c4nnc(C(F)F)o4)cn3)c3ccc(-c4ccccc4F)cc32)CC1 [Compound 134, 1-((5-(5-(difluoromethyl)-1,3,4-oxadiazole-2-yl)pyridine-2-yl)methyl)-5-(2-fluorophenyl)-3-(1-methylpiperidine-4-yl)-1,3-dihydro-2H-benzo[d]imidazole-2-one] | 20 | > 10000
5 | CN(C)CCn1c(=O)n(Cc2ccc(-c3nnc(C(F)F)o3)cc2F)c2ccccc21 [Compound 36, 1-(4-(5-(difluoromethyl)-1,3,4-oxadiazole-2-yl)-2-fluorobenzyl)-3-(2-(dimethylamino)ethyl)-1,3-dihydro-2H-benzo[d]imidazole-2-one] | 131 | > 10000
6 | O=c1oc2cc(-c3ccnc(N4CCN(C5CCC5)CC4)c3)c(F)cc2n1Cc1ccc(-c2nnc(C(F)F)o2)cn1 [Compound 367, 6-(2-(4-cyclobutylpiperazine-1-yl)pyridine-4-yl)-3-((5-(5-(difluoromethyl)-1,3,4-oxadiazole-2-yl)pyridine-2-yl)methyl)-5-fluorobenzo[d]oxazole-2(3H)-one] | 312 | > 10000
7 | O=c1n(Cc2ccc(-c3nnc(C(F)F)o3)cc2F)c2ccc(Cl)cc2n1C1CCN(C2COC2)CC1 [Compound 102, 5-chloro-1-(4-(5-(difluoromethyl)-1,3,4-oxadiazole-2-yl)-2-fluorobenzyl)-3-(1-(oxetan-3-yl)piperidine-4-yl)-1,3-dihydro-2H-benzo[d]imidazole-2-one] | 59 | > 10000
8 | O=c1oc2cc(-c3cnn(C4CCN(CC(F)(F)F)CC4)c3)c(F)cc2n1Cc1ccc(-c2nnc(C(F)F)o2)cn1 [Compound 363, 3-((5-(5-(difluoromethyl)-1,3,4-oxadiazole-2-yl)pyridine-2-yl)methyl)-5-fluoro-6-(1-(1-(2,2,2-trifluoroethyl)piperidine-4-yl)-1H-pyrazole-4-yl)benzo[d]oxazole-2(3H)-one] | 75 | > 10000
9 | O=c1n(Cc2ccc(-c3nnc(C(F)F)o3)cc2)c2ncccc2n1C1CCN(C2COC2)CC1 [Compound 106, 3-(4-(5-(difluoromethyl)-1,3,4-oxadiazole-2-yl)benzyl)-1-(1-(oxetan-3-yl)piperidine-4-yl)-1,3-dihydro-2H-imidazo[4,5-b]pyridine-2-one] | 391 | > 10000
10 | CN1CCC(n2c(=O)n(Cc3ccc(-c4nnc(C(F)F)o4)cn3)c3cc(F)c(-c4ccc5c(ccn5C)c4)cc32)CC1 [Compound 250, 1-((5-(5-(difluoromethyl)-1,3,4-oxadiazole-2-yl)pyridine-2-yl)methyl)-6-fluoro-5-(1-methyl-1H-indole-5-yl)-3-(1-methylpiperidine-4-yl)-1,3-dihydro-2H-benzo[d]imidazole-2-one] | 18 | > 10000
11 | O=c1n(Cc2ccc(-c3nnc(C(F)F)o3)cn2)c2cc(F)c(-c3cccc4[nH]ccc34)cc2n1CC1CCN(C2COC2)CC1 [Compound 289, 1-((5-(5-(difluoromethyl)-1,3,4-oxadiazole-2-yl)pyridine-2-yl)methyl)-6-fluoro-5-(1H-indole-4-yl)-3-((1-(oxetan-3-yl)piperidine-4-yl)methyl)-1,3-dihydro-2H-benzo[d]imidazole-2-one] | 4 | > 10000
12 | CN1CCC(n2c(=O)n(Cc3ccc(-c4nnc(C(F)F)o4)cn3)c3cc(F)ccc32)CC1 [Compound 48, 3-((5-(5-(difluoromethyl)-1,3,4-oxadiazole-2-yl)pyridine-2-yl)methyl)-5-fluoro-1-(1-methylpiperidine-4-yl)-1,3-dihydro-2H-benzo[d]imidazole-2-one] | 22 | > 10000
13 | O=c1n(Cc2ccc(-c3nnc(C(F)F)o3)cn2)c2cc(F)c(-c3cn[nH]c3)cc2n1[C@@H]1CCCN(C2COC2)C1 [Compound 296, (R)-1-((5-(5-(difluoromethyl)-1,3,4-oxadiazole-2-yl)pyridine-2-yl)methyl)-6-fluoro-3-(1-(oxetan-3-yl)piperidine-3-yl)-5-(1H-pyrazole-4-yl)-1,3-dihydro-2H-benzo[d]imidazole-2-one] | 5 | > 10000
14 | CC(C)N1CCN(c2cc(-c3cc4oc(=O)n(Cc5ccc(-c6nnc(C(F)F)o6)cn5)c4cc3F)ccn2)CC1 [Compound 365, 3-((5-(5-(difluoromethyl)-1,3,4-oxadiazole-2-yl)pyridine-2-yl)methyl)-5-fluoro-6-(2-(4-isopropylpiperazine-1-yl)pyridine-4-yl)benzo[d]oxazole-2(3H)-one] | 33 | > 10000
15 | CN1CCC(n2c(=O)n(Cc3ccc(-c4nnc(C(F)F)o4)cn3)c3cc(C(F)(F)F)ccc32)CC1 [Compound 89, 3-((5-(5-(difluoromethyl)-1,3,4-oxadiazole-2-yl)pyridine-2-yl)methyl)-1-(1-methylpiperidine-4-yl)-5-(trifluoromethyl)-1,3-dihydro-2H-benzo[d]imidazole-2-one] | 38 | > 10000
16 | O=c1sc2cc(-c3cnn(C4CCN(C5COC5)CC4)c3)ccc2n1Cc1ccc(-c2nnc(C(F)F)o2)cn1 [Compound 355, 3-((5-(5-(difluoromethyl)-1,3,4-oxadiazole-2-yl)pyridine-2-yl)methyl)-6-(1-(1-(oxetan-3-yl)piperidine-4-yl)-1H-pyrazole-4-yl)benzo[d]thiazole-2(3H)-on] | 23 | > 10000
17 | CC(=O)N1CCC(n2c(=O)n(Cc3ccc(-c4nnc(C(F)F)o4)cn3)c3cc(Cl)ccc32)CC1 [Compound 215, 1-(1-acetylpiperidine-4-yl)-5-chloro-3-((5-(5-(difluoromethyl)-1,3,4-oxadiazole-2-yl)pyridine-2-yl)methyl)-1,3-dihydro-2H-benzo[d]imidazole-2-one] | 20 | > 10000
18 | CN1CCC(n2c(=O)n(Cc3ccc(-c4nnc(C(F)F)o4)cn3)c3ccc(-c4cccnc4)cc32)CC1 [Compound 136, 1-((5-(5-(difluoromethyl)-1,3,4-oxadiazole-2-yl)pyridine-2-yl)methyl)-3-(1-methylpiperidine-4-yl)-5-(pyridine-3-yl)-1,3-dihydro-2H-benzo[d]imidazole-2-one] | 12 | > 10000
19 | O=c1oc2cc(Cl)ccc2n1Cc1ccc(-c2nnc(C(F)F)o2)cn1 [Compound 265, 6-chloro-3-((5-(5-(difluoromethyl)-1,3,4-oxadiazole-2-yl)pyridine-2-yl)methyl)benzo[d]oxazole-2(3H)-one] | 46 | > 10000
